Test results: patent publication US5707966A, “Antithrombotic agents” (Eli Lilly and Company, priority 1995, dated 1998)
Structures can show the parent of a compound that is named as a salt. Where two headings read alike, the source gives them in different places.

Columns and labels:
[1] = target: Human Thrombin (Homo sapiens, UniProt P00734); assay: Inhibition of amidase activity of thrombin (Kass); format: biochemical
[2] = target: T1, factor Xa (Homo sapiens, UniProt P00742); assay: Kass with factor Xa, chromogenic substrate; format: biochemical
T1 construct: Human factors X, Xa, IXa, XIa, and XIIa are purchased; purchased Enzyme Research Laboratories, South Bend, Ind

[3] = target: T2, Bovine trypsin (Bos taurus, UniProt P00760); assay: Kass with trypsin, chromogenic substrate; format: biochemical
T2 construct: Bovine trypsin is purchased; purchased Worthington Biochemicals, Freehold, N.J
T2 sequence (P00760 24-246): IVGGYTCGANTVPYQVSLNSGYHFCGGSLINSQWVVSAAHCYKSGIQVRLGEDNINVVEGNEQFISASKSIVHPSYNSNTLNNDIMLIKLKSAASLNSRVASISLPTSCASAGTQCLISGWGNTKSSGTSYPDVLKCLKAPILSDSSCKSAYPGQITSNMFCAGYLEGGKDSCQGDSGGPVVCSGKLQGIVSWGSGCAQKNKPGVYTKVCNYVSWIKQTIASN

[4] = target: T3, Human plasmin (Homo sapiens, UniProt P00747); assay: Kass with plasmin, chromogenic substrate; format: biochemical
T3 construct: Human plasmin is purchased; purchased Boehringer Mannheim, Indianapolis, Ind

[5] = target: T4, t-PA (Homo sapiens, UniProt P00750); assay: Kass with t-PA, chromogenic substrate; format: biochemical; conditions: substrate H-D-Ile-Pro-Arg-p-nitroanilide
T4 construct: purchased American Diagnostica, Greenwich, Conn

[6] = test system: Human plasma; assay: Human plasma anticoagulation, thrombin time (TT); format: biochemical; conditions: concentration required to double the thrombin time, linear extrapolation
How it was run: (§1)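 Citrated human plasma + cpd (broad conc. range); instrument clot timing. PT: saline/Thromboplastin-C. APTT: Actin 120 s, then CaCl2 0.02M. TT: saline/bovine thrombin 10 NIH units/mL. Value = conc. doubling clotting time, linear extrapolation.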

[7] = Index of bioavailability (% Relative Activity, plasma TT AUC oral vs i.v.); format: in vivo; conditions: dose-adjusted AUC of plasma TT, p.o. vs i.v. bolus
Description: Parke Davis) at 37° C. […] Assays are done in duplicate and averaged. […] Each sample population represented alternating sequential time points.

[8] = test system: Human plasma; assay: Human plasma anticoagulation, activated partial thromboplastin time (APTT); format: biochemical; conditions: concentration required to double the APTT, linear extrapolation
How it was run: as §1

[9] = test system: Human plasma; assay: Human plasma anticoagulation, prothrombin time (PT); format: biochemical; conditions: concentration required to double the PT, linear extrapolation
How it was run: as §1

[10] = mean over a range of concentrations, […]
[11] = substrate N-Benzoyl-Ile-Glu-Gly-Arg-p-nitroanilide
[12] = substrate N-Benzoyl-Phe-Val-Arg-p-nitroanilide
[13] = substrate H-D-Val-Leu-Lys-p-nitroanilide

T1 sequence (P00742 235-488 limits assumed): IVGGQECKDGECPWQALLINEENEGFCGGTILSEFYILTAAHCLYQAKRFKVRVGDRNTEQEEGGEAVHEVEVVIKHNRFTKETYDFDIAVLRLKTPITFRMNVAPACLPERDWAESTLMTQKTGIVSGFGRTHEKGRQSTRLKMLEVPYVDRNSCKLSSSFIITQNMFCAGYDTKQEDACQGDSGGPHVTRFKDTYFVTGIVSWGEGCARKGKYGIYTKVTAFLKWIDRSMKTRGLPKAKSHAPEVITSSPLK
T1 sequence (P00742 41-179 partner limits assumed): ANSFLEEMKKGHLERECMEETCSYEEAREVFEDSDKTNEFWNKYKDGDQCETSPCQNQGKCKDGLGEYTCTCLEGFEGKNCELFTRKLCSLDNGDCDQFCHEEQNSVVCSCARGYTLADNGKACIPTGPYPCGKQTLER
T3 sequence (P00747 97-810): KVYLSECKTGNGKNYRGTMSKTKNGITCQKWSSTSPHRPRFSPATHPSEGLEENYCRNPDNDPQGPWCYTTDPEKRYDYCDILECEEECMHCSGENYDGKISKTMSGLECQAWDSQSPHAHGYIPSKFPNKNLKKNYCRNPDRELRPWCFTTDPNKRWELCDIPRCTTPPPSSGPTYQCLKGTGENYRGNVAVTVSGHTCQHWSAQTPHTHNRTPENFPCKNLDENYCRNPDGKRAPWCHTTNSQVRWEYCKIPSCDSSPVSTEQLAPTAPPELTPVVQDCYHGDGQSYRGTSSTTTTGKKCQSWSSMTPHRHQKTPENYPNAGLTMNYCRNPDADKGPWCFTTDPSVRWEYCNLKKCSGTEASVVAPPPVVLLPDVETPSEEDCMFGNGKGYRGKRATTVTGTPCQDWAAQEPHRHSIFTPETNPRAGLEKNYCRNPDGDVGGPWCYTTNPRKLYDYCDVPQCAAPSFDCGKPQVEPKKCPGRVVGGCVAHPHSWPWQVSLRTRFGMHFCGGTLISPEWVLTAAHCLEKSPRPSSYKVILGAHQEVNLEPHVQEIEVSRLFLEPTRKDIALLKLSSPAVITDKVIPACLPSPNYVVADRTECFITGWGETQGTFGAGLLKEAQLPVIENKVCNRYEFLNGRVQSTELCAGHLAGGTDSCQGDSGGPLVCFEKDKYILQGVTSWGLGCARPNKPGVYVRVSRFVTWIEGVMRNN
T3 sequence (P00747 97-580 partner limits assumed): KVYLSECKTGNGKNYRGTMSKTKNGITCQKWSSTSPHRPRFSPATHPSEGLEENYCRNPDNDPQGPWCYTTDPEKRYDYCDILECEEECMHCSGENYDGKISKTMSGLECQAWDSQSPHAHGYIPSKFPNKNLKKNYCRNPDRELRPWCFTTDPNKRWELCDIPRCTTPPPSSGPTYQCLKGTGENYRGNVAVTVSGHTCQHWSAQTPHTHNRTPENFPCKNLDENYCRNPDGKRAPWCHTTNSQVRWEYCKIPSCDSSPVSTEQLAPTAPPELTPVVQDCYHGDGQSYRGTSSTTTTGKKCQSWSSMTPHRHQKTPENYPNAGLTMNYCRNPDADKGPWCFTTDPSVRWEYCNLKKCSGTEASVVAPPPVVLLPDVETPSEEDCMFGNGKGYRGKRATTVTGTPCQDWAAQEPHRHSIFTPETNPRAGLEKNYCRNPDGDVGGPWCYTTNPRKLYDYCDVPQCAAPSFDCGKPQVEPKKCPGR
T4 sequence (P00750 36-562): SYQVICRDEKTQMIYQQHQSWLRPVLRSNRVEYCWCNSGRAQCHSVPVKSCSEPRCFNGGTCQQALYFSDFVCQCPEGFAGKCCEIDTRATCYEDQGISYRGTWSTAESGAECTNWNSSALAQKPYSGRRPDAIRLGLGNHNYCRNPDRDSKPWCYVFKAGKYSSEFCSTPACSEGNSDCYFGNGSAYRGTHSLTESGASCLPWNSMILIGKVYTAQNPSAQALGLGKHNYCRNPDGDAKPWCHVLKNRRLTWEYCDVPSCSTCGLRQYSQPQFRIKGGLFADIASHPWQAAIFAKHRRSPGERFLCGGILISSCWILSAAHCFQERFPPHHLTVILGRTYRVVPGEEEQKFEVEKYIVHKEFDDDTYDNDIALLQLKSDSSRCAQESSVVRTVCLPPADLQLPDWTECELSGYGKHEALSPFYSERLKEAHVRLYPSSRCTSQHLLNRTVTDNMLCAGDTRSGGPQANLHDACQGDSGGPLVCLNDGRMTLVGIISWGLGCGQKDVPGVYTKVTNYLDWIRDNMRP

Compound | Kass Human Thrombin [1] | Kass Xa [2] | Kass Trypsin [3] | Kass Plasmin [4] | Kass t-PA [5] | Human Plasma Anticoagulation 2× Clotting time TT [6] [ng/mL] | % oral/i.v. activity (Rat) [7] [%] | Kass Human Thrombin [1, 10] | Kass Xa [2, 11] | Kass Trypsin [3, 12] | Kass Plasmin [4, 13] | Human Plasma Anticoagulation 2× Clotting time APTT [8] | Human Plasma Anticoagulation 2× Clotting time PT [9]
CCS(=O)(=O)N[C@H](Cc1ccccc1)C(=O)N1CCC[C@H]1C(=O)NCCCCNC(=N)N [Example 1, EtSO2 -D-Phe-Pro-Agm.HCl] | 3.3 | 0.0017 | 0.38 | 0.010 | 0.082 × 10^6 (L/mole) | 250 | 8 |  |  |  |  |  | 
D-hPro-N(PhCH2 CH2)Gly-p-NHCH2 --C6 H4 C(NH)NH2.2HCl [Example 21] |  |  |  |  | 0.002 × 10^6 (L/mole) | 160 |  | 3.6 × 10^6 (L/mole) | 0.62 × 10^6 (L/mole) | 0.96 × 10^6 (L/mole) | 0.031 × 10^6 (L/mole) | 2,000 ng/mL | 1,000 ng/mL
D-hPro-Pro(4-cis-PhO)-p-NHCH2 --C6 H4 C(NH)NH2.2HCl [Example 22] |  |  |  |  | 0.004 × 10^6 (L/mole) | 170 |  | 3.0 × 10^6 (L/mole) | 0.043 × 10^6 (L/mole) | 8.5 × 10^6 (L/mole) | 0.042 × 10^6 (L/mole) | 2,300 ng/mL | 1,000 ng/mL
D-hPro-Pro-p-NHCH2 C6 H4 C(NH)NH2.HCl [Example 17] |  |  |  |  | 0.0034 × 10^6 (L/mole) | 26 |  | 33 × 10^6 (L/mole) | 0.049 × 10^6 (L/mole) | 3.8 × 10^6 (L/mole) | 0.024 × 10^6 (L/mole) | 370 ng/mL | 400 ng/mL
EtSO2 -D-Phe-Pro-p-NHCH2 --C6 H4 C(=NH)NH2.HCl [Example 23] |  |  |  |  | 0.31 × 10^6 (L/mole) | 7 |  | 770 × 10^6 (L/mole) | 0.14 × 10^6 (L/mole) | 21 × 10^6 (L/mole) | 0.44 × 10^6 (L/mole) | 86 ng/mL | 120 ng/mL
HOOCCH2 -D-Phe-Pro-p-NHCH2 C6 H4 C(NH)NH2.HCl [Example 46] | 240 | 0.07 |  | 0.13 | 0.01 × 10^6 (L/mole) | 2 |  |  |  | 48 × 10^6 (L/mole) |  | 67 ng/mL | 77 ng/mL
